# Assay results as given in patent US20180016593A1, “HERBICIDE-RESISTANT SUNFLOWER PLANTS, POLYNUCLEOTIDES ENCODING HERBICIDE-RESISTANT ACETOHYDROXYACID SYNTHASE LARGE SUBUNIT PROTEINS, AND METHODS OF USE” (priority 2005, published 2018).
# Read-outs that look alike come from different tables or passages of the source.
# Legend:
# Format in all cases: in vivo, Helianthus annuus
# Details in all cases: 14 DAT
# [1] = tested on: sunflower TH6 (Hybrid, A122T)
# Experimental: (§1) A greenhouse study was conducted to quantify and contrast the imazapir sensivity of the mutants A122T and A205V in different genetic backgrounds at the whole plant level in sunflower. Seeds of the different sunflower lines that were used in this study were obtained under field conditions.
# (§2) Seeds were sown in Petri dishes and, after germination, plantlets were transplanted to pots of 10 cm of diameter in a potting media consisting of equal parts of vermiculite, soil and sand. Plants were grown in a greenhouse under natural light conditions supplemented with 400 W sodium halide lamps to provide a 16 hrs daylength. Day/night temperatures were 25 and 20° C., respectively. At the V2 stage 10 plants of each genotype were randomly assigned to each treatment consisting of […] imazapir doses (0, 40, 80, 160, 240, 320, 400 and 480 g ai/ha), and a zero-time biomass determination. Experiment was arranged as a randomized block design with a full factorial (sunflower line×treatment) arrangement of treatments and 10 replications.
# (§3) On the day of herbicide application ten plants of each genotype were cut at the cotyledonal node and dried at 60° C. for 48 hrs zero-time for dried weight determination.
# (§4) Height was determined as the distance between the cotyledonal node and the apex of each plant. For root biomass determination, each plant was taken from the pot and the potting media was washed out from the roots. Above ground biomass data from each line were converted to biomass accumulation after application by subtracting the appropriate average zero-time biomass from each sample. Dry biomass data were converted to percentages of the untreated control plants within each line to allow direct comparisons between groups. […]
# [2] = tested on: sunflower TH11 (Hybrid, A122T)
# Experimental: as §1, §2, §3, §4
# [3] = tested on: sunflower TH10 (Restorer Line, A205V)
# Experimental: as §1, §2, §3, §4
# [4] = tested on: sunflower TH9 (Hybrid, A205V)
smiles,measurement,setting,value
CC(C)C1(C)N=C(c2ncccc2C(=O)O)NC1=O (stereo not shown) [imazapyr],Phytotoxicity Index,[1]; 0.5x (40 g ai/ha),0.5
same,biomass accumulation (above ground dry weight),[1]; 0.5x (40 g ai/ha),100 % of untreated plots
same,plant height,[1]; 0.5x (40 g ai/ha),99.2 % of untreated plots
same,root dry weight,[1]; 0.5x (40 g ai/ha),100 % of untreated plots
same,Phytotoxicity Index,[1]; 1x (80 g ai/ha),0.5
same,biomass accumulation (above ground dry weight),[1]; 1x (80 g ai/ha),97.2 % of untreated plots
same,plant height,[1]; 1x (80 g ai/ha),98.6 % of untreated plots
same,root dry weight,[1]; 1x (80 g ai/ha),98.1 % of untreated plots
same,Phytotoxicity Index,[1]; 2x (160 g ai/ha),0.5
same,biomass accumulation (above ground dry weight),[1]; 2x (160 g ai/ha),97.9 % of untreated plots
same,plant height,[1]; 2x (160 g ai/ha),100.3 % of untreated plots
same,root dry weight,[1]; 2x (160 g ai/ha),98.2 % of untreated plots
same,Phytotoxicity Index,[1]; 3x (240 g ai/ha),0.5
same,biomass accumulation (above ground dry weight),[1]; 3x (240 g ai/ha),98.2 % of untreated plots
same,plant height,[1]; 3x (240 g ai/ha),99.8 % of untreated plots
same,root dry weight,[1]; 3x (240 g ai/ha),79.3 % of untreated plots
same,Phytotoxicity Index,[1]; 4x (320 g ai/ha),0.5
same,biomass accumulation (above ground dry weight),[1]; 4x (320 g ai/ha),97.8 % of untreated plots
same,plant height,[1]; 4x (320 g ai/ha),101.0 % of untreated plots
same,root dry weight,[1]; 4x (320 g ai/ha),78.4 % of untreated plots
same,Phytotoxicity Index,[1]; 5x (400 g ai/ha),0.5
same,biomass accumulation (above ground dry weight),[1]; 5x (400 g ai/ha),85.1 % of untreated plots
same,plant height,[1]; 5x (400 g ai/ha),87.0 % of untreated plots
same,root dry weight,[1]; 5x (400 g ai/ha),85.8 % of untreated plots
same,Phytotoxicity Index,[1]; 6x (480 g ai/ha),0.5
same,biomass accumulation (above ground dry weight),[1]; 6x (480 g ai/ha),79.5 % of untreated plots
same,plant height,[1]; 6x (480 g ai/ha),79.6 % of untreated plots
same,root dry weight,[1]; 6x (480 g ai/ha),57.3 % of untreated plots
same,Phytotoxicity Index,[2]; 0.5x (40 g ai/ha),0.4
same,biomass accumulation (above ground dry weight),[2]; 0.5x (40 g ai/ha),96.6 % of untreated plots
same,plant height,[2]; 0.5x (40 g ai/ha),100.4 % of untreated plots
same,root dry weight,[2]; 0.5x (40 g ai/ha),100 % of untreated plots
same,Phytotoxicity Index,[2]; 1x (80 g ai/ha),0.4
same,biomass accumulation (above ground dry weight),[2]; 1x (80 g ai/ha),93.9 % of untreated plots
same,plant height,[2]; 1x (80 g ai/ha),99.9 % of untreated plots
same,root dry weight,[2]; 1x (80 g ai/ha),99.0 % of untreated plots
same,Phytotoxicity Index,[2]; 2x (160 g ai/ha),0.4
same,biomass accumulation (above ground dry weight),[2]; 2x (160 g ai/ha),81.6 % of untreated plots
same,plant height,[2]; 2x (160 g ai/ha),92.0 % of untreated plots
same,root dry weight,[2]; 2x (160 g ai/ha),86.1 % of untreated plots
same,Phytotoxicity Index,[2]; 3x (240 g ai/ha),0.5
same,biomass accumulation (above ground dry weight),[2]; 3x (240 g ai/ha),75.8 % of untreated plots
same,plant height,[2]; 3x (240 g ai/ha),90.5 % of untreated plots
same,root dry weight,[2]; 3x (240 g ai/ha),81.5 % of untreated plots
same,Phytotoxicity Index,[2]; 4x (320 g ai/ha),1.0
same,biomass accumulation (above ground dry weight),[2]; 4x (320 g ai/ha),75.0 % of untreated plots
same,plant height,[2]; 4x (320 g ai/ha),90.8 % of untreated plots
same,root dry weight,[2]; 4x (320 g ai/ha),72.6 % of untreated plots
same,Phytotoxicity Index,[2]; 5x (400 g ai/ha),2.0
same,biomass accumulation (above ground dry weight),[2]; 5x (400 g ai/ha),60.1 % of untreated plots
same,plant height,[2]; 5x (400 g ai/ha),84.4 % of untreated plots
same,root dry weight,[2]; 5x (400 g ai/ha),68.9 % of untreated plots
same,Phytotoxicity Index,[2]; 6x (480 g ai/ha),2.5
same,biomass accumulation (above ground dry weight),[2]; 6x (480 g ai/ha),59.6 % of untreated plots
same,plant height,[2]; 6x (480 g ai/ha),84.4 % of untreated plots
same,root dry weight,[2]; 6x (480 g ai/ha),45.3 % of untreated plots
same,Phytotoxicity Index,[3]; 0.5x (40 g ai/ha),0
same,biomass accumulation (above ground dry weight),[3]; 0.5x (40 g ai/ha),99.2 % of untreated plots
same,plant height,[3]; 0.5x (40 g ai/ha),99.2 % of untreated plots
same,root dry weight,[3]; 0.5x (40 g ai/ha),90.3 % of untreated plots
same,Phytotoxicity Index,[3]; 1x (80 g ai/ha),0
same,biomass accumulation (above ground dry weight),[3]; 1x (80 g ai/ha),85.0 % of untreated plots
same,plant height,[3]; 1x (80 g ai/ha),98.1 % of untreated plots
same,root dry weight,[3]; 1x (80 g ai/ha),69.9 % of untreated plots
same,Phytotoxicity Index,[3]; 2x (160 g ai/ha),3.1
same,biomass accumulation (above ground dry weight),[3]; 2x (160 g ai/ha),58.1 % of untreated plots
same,plant height,[3]; 2x (160 g ai/ha),63.6 % of untreated plots
same,root dry weight,[3]; 2x (160 g ai/ha),41.3 % of untreated plots
same,Phytotoxicity Index,[3]; 3x (240 g ai/ha),3.9
same,biomass accumulation (above ground dry weight),[3]; 3x (240 g ai/ha),48.1 % of untreated plots
same,plant height,[3]; 3x (240 g ai/ha),51.9 % of untreated plots
same,root dry weight,[3]; 3x (240 g ai/ha),42.8 % of untreated plots
same,Phytotoxicity Index,[3]; 4x (320 g ai/ha),5.9
same,biomass accumulation (above ground dry weight),[3]; 4x (320 g ai/ha),28.8 % of untreated plots
same,plant height,[3]; 4x (320 g ai/ha),27.5 % of untreated plots
same,root dry weight,[3]; 4x (320 g ai/ha),22.3 % of untreated plots
same,Phytotoxicity Index,[3]; 5x (400 g ai/ha),6.9
same,biomass accumulation (above ground dry weight),[3]; 5x (400 g ai/ha),27.4 % of untreated plots
same,plant height,[3]; 5x (400 g ai/ha),26.0 % of untreated plots
same,root dry weight,[3]; 5x (400 g ai/ha),22.7 % of untreated plots
same,Phytotoxicity Index,[3]; 6x (480 g ai/ha),6.7
same,biomass accumulation (above ground dry weight),[3]; 6x (480 g ai/ha),24.9 % of untreated plots
same,plant height,[3]; 6x (480 g ai/ha),29.3 % of untreated plots
same,root dry weight,[3]; 6x (480 g ai/ha),16.4 % of untreated plots
same,Phytotoxicity Index,[4]; 0.5x (40 g ai/ha),0
same,biomass accumulation (above ground dry weight),[4]; 0.5x (40 g ai/ha),91.7 % of untreated plots
same,plant height,[4]; 0.5x (40 g ai/ha),100.0 % of untreated plots
same,root dry weight,[4]; 0.5x (40 g ai/ha),81.5 % of untreated plots
same,Phytotoxicity Index,[4]; 1x (80 g ai/ha),0
same,biomass accumulation (above ground dry weight),[4]; 1x (80 g ai/ha),81.7 % of untreated plots
same,plant height,[4]; 1x (80 g ai/ha),100.0 % of untreated plots
same,root dry weight,[4]; 1x (80 g ai/ha),84.9 % of untreated plots
same,Phytotoxicity Index,[4]; 2x (160 g ai/ha),1.6
same,biomass accumulation (above ground dry weight),[4]; 2x (160 g ai/ha),54.7 % of untreated plots
same,plant height,[4]; 2x (160 g ai/ha),78.9 % of untreated plots
same,root dry weight,[4]; 2x (160 g ai/ha),58.8 % of untreated plots
same,Phytotoxicity Index,[4]; 3x (240 g ai/ha),5.1
same,biomass accumulation (above ground dry weight),[4]; 3x (240 g ai/ha),35.7 % of untreated plots
same,plant height,[4]; 3x (240 g ai/ha),50.0 % of untreated plots
same,root dry weight,[4]; 3x (240 g ai/ha),34.1 % of untreated plots
same,Phytotoxicity Index,[4]; 4x (320 g ai/ha),8.4
same,biomass accumulation (above ground dry weight),[4]; 4x (320 g ai/ha),25.3 % of untreated plots
same,plant height,[4]; 4x (320 g ai/ha),38.1 % of untreated plots
same,root dry weight,[4]; 4x (320 g ai/ha),27.3 % of untreated plots
same,Phytotoxicity Index,[4]; 5x (400 g ai/ha),8.9
same,biomass accumulation (above ground dry weight),[4]; 5x (400 g ai/ha),19.8 % of untreated plots
same,plant height,[4]; 5x (400 g ai/ha),31.8 % of untreated plots
same,root dry weight,[4]; 5x (400 g ai/ha),29.9 % of untreated plots
same,Phytotoxicity Index,[4]; 6x (480 g ai/ha),8.9
same,biomass accumulation (above ground dry weight),[4]; 6x (480 g ai/ha),19.5 % of untreated plots
same,plant height,[4]; 6x (480 g ai/ha),34.7 % of untreated plots
same,root dry weight,[4]; 6x (480 g ai/ha),22.1 % of untreated plots
